Test results taken from patent US20090088461A1, “Methods of Treating or Preventing Cardiac Disease Associated With a High Fat Diet” (Synvista Therapeutics, Inc., priority 2007, published 2009).
Where two headings read alike, the source gives them in different places.

Legend:
[1] = molecular target: T1, AGE-BSA previously crosslinked to the collagen (Bos taurus, UniProt P02769); test: Cross-Link Breaking Assay (sandwich enzyme immunoassay); assay type: biochemical; conditions: for Breaking Anti-AGE: anti-AGE antibody; for Breaking Anti-BSA: anti-BSA antibody
T1 construct: Bovine Serum Albumin (Type V), (BSA) Calbiochem; purchased Calbiochem (BSA Type V); Collaborative Biomedical Products (Biocoat collagen plates)
T1 sequence (P02769 25-607): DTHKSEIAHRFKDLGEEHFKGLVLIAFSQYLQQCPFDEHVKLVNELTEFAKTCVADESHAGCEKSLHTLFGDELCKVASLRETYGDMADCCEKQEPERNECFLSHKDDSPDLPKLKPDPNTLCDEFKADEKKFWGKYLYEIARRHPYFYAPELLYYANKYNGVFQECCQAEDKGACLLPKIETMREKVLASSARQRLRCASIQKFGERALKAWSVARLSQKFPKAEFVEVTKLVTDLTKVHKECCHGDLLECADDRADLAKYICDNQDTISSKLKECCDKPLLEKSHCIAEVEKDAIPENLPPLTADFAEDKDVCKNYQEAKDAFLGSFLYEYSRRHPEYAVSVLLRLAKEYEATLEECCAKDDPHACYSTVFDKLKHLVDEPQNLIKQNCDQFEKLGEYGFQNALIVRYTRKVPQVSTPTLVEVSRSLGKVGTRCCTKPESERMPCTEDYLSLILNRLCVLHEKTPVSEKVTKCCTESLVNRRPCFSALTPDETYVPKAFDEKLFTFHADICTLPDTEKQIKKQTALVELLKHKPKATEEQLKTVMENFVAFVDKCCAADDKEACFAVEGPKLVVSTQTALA
T1 sequence (P02454 152-1207 partner limits assumed): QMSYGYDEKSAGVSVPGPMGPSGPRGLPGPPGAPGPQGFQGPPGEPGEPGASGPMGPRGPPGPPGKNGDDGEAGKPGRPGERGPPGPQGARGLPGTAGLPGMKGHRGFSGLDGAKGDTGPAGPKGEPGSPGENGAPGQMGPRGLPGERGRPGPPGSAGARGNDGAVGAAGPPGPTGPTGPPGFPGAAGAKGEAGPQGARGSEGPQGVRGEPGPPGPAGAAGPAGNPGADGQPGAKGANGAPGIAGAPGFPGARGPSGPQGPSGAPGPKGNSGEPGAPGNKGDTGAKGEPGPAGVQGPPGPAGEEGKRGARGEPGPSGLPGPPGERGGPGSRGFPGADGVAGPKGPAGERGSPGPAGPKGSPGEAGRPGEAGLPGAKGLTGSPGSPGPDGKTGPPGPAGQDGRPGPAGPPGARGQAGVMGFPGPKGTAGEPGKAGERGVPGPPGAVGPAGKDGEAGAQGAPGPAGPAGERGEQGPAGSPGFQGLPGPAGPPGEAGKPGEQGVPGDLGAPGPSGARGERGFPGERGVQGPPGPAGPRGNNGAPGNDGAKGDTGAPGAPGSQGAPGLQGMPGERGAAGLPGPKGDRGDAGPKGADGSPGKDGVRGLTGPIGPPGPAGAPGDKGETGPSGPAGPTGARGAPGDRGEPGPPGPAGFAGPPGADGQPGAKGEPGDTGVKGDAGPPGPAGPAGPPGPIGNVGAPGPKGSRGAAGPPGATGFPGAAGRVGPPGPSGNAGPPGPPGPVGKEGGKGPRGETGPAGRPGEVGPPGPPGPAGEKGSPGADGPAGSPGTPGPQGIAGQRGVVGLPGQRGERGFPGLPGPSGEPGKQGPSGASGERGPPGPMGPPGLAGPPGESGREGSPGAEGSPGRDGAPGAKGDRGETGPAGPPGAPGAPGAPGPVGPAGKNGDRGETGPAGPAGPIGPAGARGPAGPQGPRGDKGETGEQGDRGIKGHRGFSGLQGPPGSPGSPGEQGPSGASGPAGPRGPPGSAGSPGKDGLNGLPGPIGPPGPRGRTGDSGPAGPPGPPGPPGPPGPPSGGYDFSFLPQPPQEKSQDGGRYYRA
T1 sequence (P02466 86-1125 partner limits assumed): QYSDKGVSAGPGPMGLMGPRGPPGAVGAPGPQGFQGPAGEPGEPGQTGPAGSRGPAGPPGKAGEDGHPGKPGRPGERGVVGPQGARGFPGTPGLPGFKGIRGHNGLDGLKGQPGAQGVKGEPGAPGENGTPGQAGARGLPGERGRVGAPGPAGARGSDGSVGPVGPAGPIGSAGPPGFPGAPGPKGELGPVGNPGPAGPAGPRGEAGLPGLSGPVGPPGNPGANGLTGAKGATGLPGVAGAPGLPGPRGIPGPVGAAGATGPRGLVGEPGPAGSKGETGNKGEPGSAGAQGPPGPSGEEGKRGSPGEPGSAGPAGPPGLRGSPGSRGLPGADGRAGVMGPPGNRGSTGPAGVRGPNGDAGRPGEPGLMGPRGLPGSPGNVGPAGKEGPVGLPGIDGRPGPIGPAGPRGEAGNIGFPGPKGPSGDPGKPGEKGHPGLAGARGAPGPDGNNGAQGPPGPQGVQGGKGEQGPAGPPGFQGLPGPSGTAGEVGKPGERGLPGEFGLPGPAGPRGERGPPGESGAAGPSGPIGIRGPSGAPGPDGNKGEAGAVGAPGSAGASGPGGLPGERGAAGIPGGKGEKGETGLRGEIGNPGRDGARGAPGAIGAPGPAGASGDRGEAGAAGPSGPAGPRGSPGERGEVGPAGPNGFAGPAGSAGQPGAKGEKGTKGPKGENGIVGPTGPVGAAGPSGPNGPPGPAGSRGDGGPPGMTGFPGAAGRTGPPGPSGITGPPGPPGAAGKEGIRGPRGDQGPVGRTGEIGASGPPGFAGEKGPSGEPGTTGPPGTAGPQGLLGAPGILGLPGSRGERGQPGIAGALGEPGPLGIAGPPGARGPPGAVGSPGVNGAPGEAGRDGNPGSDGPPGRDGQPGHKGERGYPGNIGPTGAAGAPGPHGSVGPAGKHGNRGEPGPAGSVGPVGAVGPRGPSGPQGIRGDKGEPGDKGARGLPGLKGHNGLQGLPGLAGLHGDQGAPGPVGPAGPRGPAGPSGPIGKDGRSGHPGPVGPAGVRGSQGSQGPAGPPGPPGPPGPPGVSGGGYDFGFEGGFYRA
Protocol: The present invention also involves a novel sandwich enzyme immunoassay used to ascertain the ability of test compounds to “break” or reverse already formed advanced glycosylation endproducts by detecting the breaking of AGE (Advanced glycosylation endproduct) moieties from AGE-crosslinked protein. This assay comprises:
a) incubation of AGE-modified bovine serum albumin (AGE BSA) on collagen-coated wells of microtiter plates for a period of 2-6 hours' at a temperature of 37° C.
b) washing of the wells with PBS-Tween;
c) application of the test compounds to the washed wells of step b;
d) incubation of the test compounds applied to the washed wells for an additional 12-24 hours at a temperature of about 37° C.; and
e) detection of the AGE-breaking using an antibody raised against AGE-ribonuclease or cross-link breaking with an antibody against BSA.
In order to ascertain the ability of the compounds of the instant invention to “break” or reverse already formed advanced glycosylation endproducts, a novel sandwich enzyme immunoassay was developed which detects breaking of AGE (Advanced glycosylation endproduct) moieties from AGE-crosslinked protein. The assay utilizes collagen-coated 96 well microtiter plates that are obtained commercially. […] Following an incubation period of 16 hours (37° C.) cross-link-breaking is detected using an antibody raised against AGE-ribonuclease or with an antibody against BSA. […] Details of the assay are as follows:
1. AGE-BSA stock solutions were prepared as follows. Sodium phosphate buffer (0.4 M) was prepared by dissolving 6 grams of monobasic sodium phosphate in 100 ml of distilled water, 7 grams of dibasic sodium phosphate (0.4 M) in 100 ml of distilled water and adjusting the pH of the dibasic solution to 7.4 with the monobasic solution. Sodium azide (0.02 grams) was added per 100 ml volume to inhibit bacterial growth. The BSA solution was prepared as follows: 400 mg of Type V BSA (bovine serum albumin) was added for each ml of sodium phosphate buffer (above). A 400 mM glucose solution was prepared by dissolving 7.2 grams of dextrose in 100 ml of sodium phosphate buffer (above). The BSA and glucose solutions were mixed 1:1 and incubated at 37° C. for 12 weeks. The pH of the incubation mixture was monitored weekly and adjusted to pH 7.4 if necessary. After 12 weeks, the AGE-BSA solution was dialyzed against PBS for 48 hours with four buffer changes, each at a 1:500 ratio of solution to dialysis buffer. Protein concentration was determined by the micro-Lowry method. The AGE-BSA stock solution was aliquoted and stored at −20° C.
2. Working solutions for crosslinking and breaking studies were prepared as follows. Test compounds were dissolved in PBS and the pH was adjusted to pH 7.4 if necessary. AGE-BSA stock solution was diluted in PBS to measure maximum crosslinking and in the inhibitor solution for testing inhibitory activity of compounds. The concentration of AGE-BSA necessary to achieve the optimum sensitivity was determined by initial titration of each lot of AGE-BSA.
3. Wash buffer (“PBS-Tween”) was, prepared as follows. PBS was prepared by dissolving the following salts in one liter of distilled water: NaCl, 8 grams; KCl, 0.2 gram, KH2PO4. […] Tween-20 was added to a final concentration of 0.05% (vol/vol).
4. Substrates for detection of secondary antibody binding were prepared by diluting the HRP substrate buffer 1:10 in distilled water and mixing with ABTS chromogen 1:50 just prior to use.
1. Biocoat plates were blocked with 300 μl of “Superbloc”. Plates were blocked for one hour at room temperature and were washed with PBS-Tween three times with the Dynatech platewasher before addition of test reagents.
2. Each experiment was set up in the following manner. The first three wells of the Biocoat plate were used for the reagent blank. Fifty microliters of solutions AGE-BSA were added to test wells in triplicate and only PBS in blank wells.

[2] = molecular target: cross-linking of glycated bovine serum albumin (AGE-BSA) to the rat tail tendon collagen-coated 96-well plate (Bos taurus, UniProt P02769); test: Cross-Linking Inhibition Assay; conditions: for inhibition at 10000 µM: read-out: Relative Cross-link Inhibition (at 10 mM)
Chain of cross-linking of glycated bovine serum albumin (AGE-BSA) to the rat tail tendon collagen-coated 96-well plate (P02769 25-607): as the sequence (P02769 25-607) above
Protocol: The following method was used to evaluate the ability of the compounds of the present invention to inhibit the cross-linking of glycated bovine serum albumin (AGE-BSA) to the rat tail tendon collagen-coated 96-well plate.
The blocking solution was removed from the wells by, washing the plate twice with PBS-'Tween 20 solution (0.05% Tween 20) using a NUNq-multiprobe or Dynatech ELISA-plate washer. Cross-linking of AGE-BSA (1 to 10 mg per well depending on the batch of AGE-BSA) to rat tail tendon collagen coated plate was performed with and without the testing ‘compound dissolved in PBS buffer at pH 7.4 at the desired concentrations by the, addition of 50 μl each of the AGE-BSA diluted in PBS or in the solution of test compound at 37° C. for 4 hours.
Unbrowned BSA in PBS buffer with or without testing compound were added to the separate wells as the blanks. The un-cross-linked AGE-BSA was then removed by washing the wells three times with PBS-Tween buffer. The amount of AGE-BSA cross-linked to the tail tendon collagen-coated plate was then quantitated using a polyclonal antibody raised against AGE-RNase. After a one-hour incubation period, AGE antibody was removed by washing 4 times with PBS-Tween.
The bound AGE antibody was then detected with the addition of horseradish peroxidase-conjugated secondary antibody—goat anti-rabbit immunoglobulin and incubation for 30 minutes. […] The reaction was allowed for an additional 15 minutes and the absorbance was read at 410 nm in a Dynatech plate reader.

[3] = test system: IgG crosslinked to circulating red blood cells; test: RBC-IgG assay; assay type: in vivo; conditions: streptozotocin-induced diabetic rats, dosed orally 10 mg/kg body weight, 19 days
Excerpt: 2. […] 3. […] 4. […] 5. […] 6. […] 7. […] 8.
10. […] 11. […] 12. […] 13. […] 14. […] 15. […] 16. […] 17.

[4] = Reaction with 1-phenyl-1,2-propanedione
[5] = molecular target: AGE-crosslinks that form when AGE-modified BSA (AGE-BSA) is allowed to react with unmodified, native collagen (Bos taurus, UniProt P02769); test: Release of BSA from pre-formed AGE-BSA/collagen complexes; assay type: biochemical
Chain of AGE-crosslinks that form when AGE-modified BSA (AGE-BSA) is allowed to react with unmodified, native collagen (P02769 25-607): as above
Excerpt: Once early, addition products form on proteins, further reactions can ensue to effect a covalent, protein-protein crosslinking reaction. In this regard, a compound of the formula I, N-phenacylthiazolium bromide, was allowed to react with the AGE-crosslinks that form when AGE-modified BSA (AGE-BSA) is allowed to react with unmodified, native collagen. […] Again, this confirmed that a significant portion of the AGE-crosslinks that form under experimental conditions consist of an α-diketone or related structure that is susceptible to cleavage by the advantageous bidentate-type molecules of the compounds of formula I under physiological conditions.

Row | SMILES | Breaking Anti-AGE ([1]; at 10 mM) [%] | Breaking Anti-BSA ([1]; at 10 mM) [%] | IC50 [2] [mM] | Breaking Anti-AGE ([1]; at 30 mM) [%] | Breaking Anti-BSA ([1]; at 30 mM) [%] | inhibition at 10000 µM [2] [%] | other results
1 | C[n+]1ccn(CC(=O)c2cc(C(C)(C)C)c(O)c(C(C)(C)C)c2)c1 [1-methyl-3-(2-(3′,5′-di-tert-butyl-4′-hydroxyphenyl)-2-oxoethyl]-imidazolium bromide] | 56 | 38 | 4.5 |  |  |  | 
2 | O=C(O)C[n+]1csc2ccccc21.[Br-] [3-(carboxymethyl)-benzothiazolium bromide] |  |  |  | 63.7 | 17.9 | 16 | 
3 | COC(=O)c1ccc(NC(=O)C[n+]2csc(CCO)c2C)cc1O [3-(2-(4′-carbmethoxy-3′-hydroxyanilino)-2-oxoethyl]-4-methyl-5-(2′-hydroxyethyl)-thiazolium bromide] | 24 | 18 | 1.76 |  |  |  | 
4 | Cc1sc[n+](CC(N)=O)c1C.[Br-] [3-(2-amino-2-oxoethyl)-4,5-dimethyl-thiazolium bromide] |  |  | 9.9 | 61 | 16 |  | 
5 | Cc1c[n+](CC(=O)c2cc(C(C)(C)C)c(O)c(C(C)(C)C)c2)cs1 [3-[2-(3′,5′-di-tert-butyl-4′-hydroxyphenyl)-2-oxoethyl)-5-methyl-thiazolium bromide] | 48 | 49 | 0.78 |  |  |  | Breaking Anti-AGE ([1]; at 1 mM): 65%; Breaking Anti-BSA ([1]; at 1 mM): 69%; IC50 ([1]; detection with anti-AGE antibody, read-out: IC50 (mM) Anti-AGE): 3 mM; Percent Inhibition (percent breaking of RBC-IgG) [3]: 65 ± 15 @ 19 days %; inhibition at 1000 µM ([2]; read-out: Relative Cross-link Inhibition): 69%
6 | COC(=O)C[n+]1csc2ccccc21.[Br-] [3-(2-methoxy-2-oxoethyl)-benzothiazolium bromide] |  |  | > 10 | 66 | 37 | 35 | 
7 | COC(=O)C[n+]1cscc1C.[Br-] [3-(2-methoxy-2-oxoethyl)-4-methylthiazolium bromide] |  |  |  | 54 | 51 | 58 | 
8 | Cc1c(CCO)sc[n+]1CC(=O)Nc1c(C(C)C)cccc1C(C)C.[Br-] [3-(2-(2′,6′-Diisopropylanilino)-2-oxoethyl]-4-methyl-5-(2′-hydroxyethyl)-thiazolium bromide] | 31 | 48 |  |  |  |  | Relative Cross-link Inhibition (at 10 mM) [2]: 19%
9 | O=C(C[n+]1ccsc1)c1ccccc1.[Br-] [3-(2-phenyl-2-oxoethyl)thiazolium bromide] |  |  | 11.1 |  |  | 34 | Breaking Anti-AGE ([1]; concentration not given): 73%; Breaking Anti-BSA ([1]; concentration not given): 98%; reaction with 1-phenyl-1,2-propanedione to produce benzoic acid [4]: rapid and readily proceeded; release of BSA from the pre-formed AGE-mediated complexes [5]: concentration-dependent release of BSA
10 | Cc1c(CCO)sc[n+]1CC(N)=O.[Br-] [3-(2-amino-2-oxoethyl)-4-methyl-5-(2-hydroxyethyl)thiazolium bromide] |  |  | 1.42 |  |  |  | Breaking Anti-AGE ([1]; concentration not given): 65%; Breaking Anti-BSA ([1]; concentration not given): 57%
11 | Cc1csc[n+]1CC(=O)c1cc(C(C)(C)C)c(O)c(C(C)(C)C)c1.[Br-] [3-[2-(3′,5′-di-tert-butyl-4′-hydroxyphenyl)-2-oxoethyl]-4-methyl-thiazolium bromide] |  |  |  |  |  |  | Breaking Anti-AGE ([1]; at 0.3 mM): 14%; Breaking Anti-BSA ([1]; at 0.3 mM): 2%; Relative Cross-link Inhibition ([2]; 0.3 mM): 24% @ 0.3 mM
12 | Cc1c(CCO)sc[n+]1CC(=O)c1ccccc1.[Br-] [3-(2-phenyl-2-oxoethyl)-4-methyl-5-(2-hydroxyethyl)-thiazolium bromide] |  |  | > 10 | 67 | 13 | 36 | 
13 | Cc1c(CCO)sc[n+]1CC(=O)c1ccc2ccccc2c1.[Br-] [3-(2-(2′-naphthyl)-2-oxoethyl]-4-methyl-5-(2′-hydroxyethyl)-thiazolium bromide] | 52 | 61 |  |  |  |  | Percent Inhibition (percent breaking of RBC-IgG) [3]: 40 ± 24 @ 19 days %; Relative Cross-link Inhibition (at 10 mM) [2]: 61%
14 | COC(=O)C[n+]1csc(C)c1C.[Br-] [3-(2-methoxy-2-oxoethyl)-4,5-dimethylthiazolium bromide] |  |  | 0.48 | 63 | 47 |  | 
15 | C=Cc1sc[n+](CC(=O)c2ccccc2)c1C.[Br-] [3-(2-phenyl-2-oxoethyl)-4-methyl-5-vinyl-thiazolium bromide] |  |  |  |  |  |  | Breaking Anti-AGE ([1]; at 1 mM): 62%; Breaking Anti-BSA ([1]; at 1 mM): 82%; IC50 ([1]; detection with anti-BSA antibody, read-out: IC50 (mM) Anti-BSA): 0.1 mM; Percent Inhibition (percent breaking of RBC-IgG) [3]: 58 ± 21 ® 19 days %
